{
  "source": "paper PMC11031590",
  "about": "“Narazaciclib, a novel multi-kinase inhibitor with potent activity against CSF1R, FLT3 and CDK6, shows strong anti-AML activity in defined preclinical models” (Scientific Reports, 2024)",
  "key": {"CDK6-CyclinD1": {"target": "CDK6-CyclinD1 (Homo sapiens, UniProt Q00534)", "sequence (Q00534 whole entry)": "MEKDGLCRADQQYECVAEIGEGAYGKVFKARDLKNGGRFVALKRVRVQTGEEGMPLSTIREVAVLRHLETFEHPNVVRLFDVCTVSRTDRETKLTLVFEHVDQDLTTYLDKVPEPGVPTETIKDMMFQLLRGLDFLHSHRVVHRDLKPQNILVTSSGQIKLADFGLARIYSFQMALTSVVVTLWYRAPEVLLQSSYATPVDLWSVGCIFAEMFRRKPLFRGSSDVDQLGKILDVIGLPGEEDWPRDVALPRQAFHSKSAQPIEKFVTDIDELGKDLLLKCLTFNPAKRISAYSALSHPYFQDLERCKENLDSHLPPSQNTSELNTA", "sequence (P24385 whole entry partner)": "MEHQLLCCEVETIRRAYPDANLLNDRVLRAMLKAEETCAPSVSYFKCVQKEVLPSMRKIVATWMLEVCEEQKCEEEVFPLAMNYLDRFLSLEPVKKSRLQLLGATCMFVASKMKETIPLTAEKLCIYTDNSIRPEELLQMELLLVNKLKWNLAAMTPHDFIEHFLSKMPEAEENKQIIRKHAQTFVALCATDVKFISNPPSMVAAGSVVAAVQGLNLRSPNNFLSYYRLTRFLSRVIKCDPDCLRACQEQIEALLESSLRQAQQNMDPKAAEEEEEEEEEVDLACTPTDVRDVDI", "assay": "CDK6 TR-FRET kinase assay", "type": "biochemical", "settings": "ATP 250 µM; read-out: IC50 CDK6 enzymatic activity", "procedure": "For CDK6 inhibition, a Time-resolved fluorescence energy transfer (TR-FRET) kinase assay was performed according to the manufacturer’s instructions. Briefly, narazaciclib at various concentrations was pre-incubated with CDK6-CyclinD1 in kinase buffer at 25 °C for 1 h and then incubated with 12.5 nM Ulight-4E-BP1 peptide and 250 µM ATP at 25 °C for 2 h. The reaction was stopped by incubating with EDTA-containing stop buffer at 25 °C for 5 min. Subsequently, the mixture was incubated with detection buffer at 25 °C for 1 h. Finally, the signal was read on a Nivo Reader in TR-FRET mode (excitation at 320 nm and emission at 665 nm and 615 nm). The signal of the blank control was subtracted from the maximum signal (DMSO without compound) as well as from the value of narazaciclib at each concentration. This corrected emission ratio (ER) was used to calculate the percentage of enzyme activity recovery: enzyme activity recovery (%) = [(narazaciclib ER – blank control ER)[…]] × 100. The results were fitted to a dose–response curve by a 4-parameter log-logistic model: Inhibition%=Bottom+Top-Bottom/1+10^logEC50-x∗HillSlope"}, "[1]": {"tested_on": "Ba/F3-ETV6-CSF1R xenograft", "assay": "Ba/F3-ETV6-CSF1R subcutaneous xenograft model", "type": "in vivo, NOD/scid mice", "settings": "either 50 mg/kg or 100 mg/kg", "excerpt": "(§1) The subcutaneous cell line xenograft (CDX) models and systemic patient-derived xenograft (PDX) models of AML have been extensively described before. For the subcutaneous MV-4-11 CDX model, 5 × 10^6 MV-4-11 tumor cells harvested from exponential growth phase were mixed with Matrigel (1:1) and then inoculated into the right front flank region of 6- to 7-week-old female NOD/scid mice for tumor development. MV-4-11 tumor-bearing mice were randomized into 5 groups (N = 8) when their tumor volume reached approximately 100 mm^3 and received their designated treatments following randomization. Narazaciclib was administrated intraperitoneally at 100 mg/kg twice per week for 3 weeks, while Azacitidine was administrated intraperitoneally at 3 mg/kg twice per week for 3 weeks. For the subcutaneous Ba/F3-ETV6-CSF1R CDX model, 1 × 10^6 Ba/F3-ETV6-CSF1R tumor cells harvested from exponential growth phase were mixed with Matrigel (1:1) and then inoculated into the right front flank region of 6- to 8-week-old female NOD/scid mice for tumor development. Ba/F3-ETV6-CSF1R tumor-bearing mice were randomized into 5 groups (N = 6) when their tumor volume reached approximately 100 mm^3 and received their designated treatments following randomization. […] Tumor volume and body weight were measured at different time points and tumor growth inhibition (TGI) was used as index to determine the therapeutic efficacy."}, "Ba/F3-FLT3-ITD (D835F)": {"tested_on": "Ba/F3-FLT3-ITD (D835F)", "assay": "Ba/F3-FLT3-ITD (D835F) proliferation assay", "type": "cell-based, mouse", "procedure": "The recombinant Ba/F3 cell lines overexpressing human CSF1R, or human RBM6-CSF1R, or human ETV6-CSF1R were generated using a retrovirus vector (Kyinno Co., Ltd. Beijing). The recombinant Ba/F3 lines overexpressing human Kras G12C orEGFR-L718Q mutants, and different mutant variants of FLT3 were also similarly created as well. A standard proliferation assay via CTG readout was performed according to the vendor’s instructions (KYinno Biotechnology Co., Ltd. Beijing)."}, "[2]": {"assay": "Single-dose oral pharmacokinetics in non-tumor bearing mice", "type": "in vivo", "settings": "female, NOD/scid; for CL/F: read-out: CL_F (converted)", "procedure": "In order to understand the effective anti-AML exposure of narazaciclib in mice, we conducted a preliminary pharmacokinetic (PK) analysis of a single-dose oral administration of narazaciclib, at the same dose levels as in anti-AML pharmacology study above, in non-tumor bearing mice. Following a single oral administration of narazaciclib at either 30 mg/kg or 100 mg/kg in mice, plasma samples were collected at various timepoints. The plasma concentrations of narazaciclib were analyzed by LC–MS. […] In addition, narazaciclib undergoes relatively fast elimination from plasma with a T1/2 of 2.77 h for narazaciclib at 100 mg/kg or 1.92 h at 30 mg/kg.\nNoncompartmental analyses (NCA) were performed using WinNonlinTM Phoenix, version XXX software (Pharsight, Cary, NC) to estimate the PK parameters including T1/2, elimination half-life; Tmax, Time to peak drug concentration; Cmax, maximum concentration; AUC0-∞, area under the plasma concentration–time curve from zero to infinity; AUC0-t, area under the plasma concentration–time curve from zero to the time of the last quantifiable time-point; CL_F, total body clearance; Vz-F, total volume of distribution. Following a single oral administration of narazaciclib at either 100 mg/kg or 30 mg/kg in female NOD/scid mice (N = 3), plasma samples were collected from 3 mice at each timepoint (pre-dose, 1h, 2h, 4h, 8h, 12h and24hpost administration) and analyzed by LC–MS."}, "M2 primary macrophages": {"tested_on": "M2 primary macrophages", "assay": "Primary macrophage proliferation assay", "type": "cell-based", "settings": "Homo sapiens", "procedure": "Human primary monocytes were isolated with an EasySep™ monocyte isolation kit (Stem Cell) from cryopreserved human PBMCs. […] Narazaciclib was serially diluted with culture medium to 9 final concentrations from 0.004 µM to 24 µM. The differentiated macrophages were incubated for 7 days at 37 °C followed by incubation with Cell Counting-Lite2.0 reagent (Vazyme) for 5 min on a shaker. Luminescence was recorded […]. The proliferation inhibition IC50 (half maximal inhibition concentration) of narazaciclib was determined by fitting the dose–response data to a four-parameter stimulation model."}, "[3]": {"tested_on": "MV-4-11 subcutaneous xenograft", "assay": "MV-4-11 subcutaneous xenograft model", "type": "in vivo, NOD/scid mice", "settings": "narazaciclib 100 mg/kg intraperitoneally twice per week for 3 weeks", "excerpt": "as §1"}, "[4]": {"settings": "30 mg/kg single oral, mouse plasma"}, "[5]": {"settings": "100 mg/kg single oral, mouse plasma"}},
  "note": "Where two headings read alike, the source gives them in different places.",
  "data": [
    {"smiles": "CN1CCN(c2ccc(Nc3ncc4cc(C#N)c(=O)n(C5CCCC5)c4n3)cc2)CC1", "note": "[Narazaciclib, narazaciclib]", "values": [
      {"measurement": "IC50", "setting": "CDK6-CyclinD1", "result": 0.53, "unit": "nM"},
      {"measurement": "tumor growth", "setting": "[1]", "result": "significantly delayed the tumor growth"},
      {"measurement": "% of Ba/F3-FLT3 (IC50)", "setting": "Ba/F3-FLT3-ITD (D835F)", "result": 23.10, "unit": "%"},
      {"measurement": "IC50", "setting": "Ba/F3-FLT3-ITD (D835F); Mus musculus", "result": 69.6, "unit": "nM"},
      {"measurement": "AUC(0-inf)", "setting": "[2]; mouse, plasma, oral, corresponding to 100 mg/kg dose level, read-out: efficacious exposure for anti-AML in mice in terms of AUC0~∞", "result": "< 8190", "unit": "ng·h/mL"},
      {"measurement": "Cmax", "setting": "[2]; mouse, plasma, oral, corresponding to 100 mg/kg dose level, read-out: efficacious exposure for anti-AML in mice in terms of Cmax", "result": "< 1460", "unit": "ng/mL"},
      {"measurement": "AUC(0-t)", "setting": "[2]; [4]", "result": 1040, "unit": "ng·h/mL"},
      {"measurement": "Tmax", "setting": "[2]; [4]", "result": 1, "unit": "h"},
      {"measurement": "half-life", "setting": "[2]; [4]", "result": 115, "unit": "min"},
      {"measurement": "AUC(0-inf)", "setting": "[2]; 30 mg/kg single oral, mouse plasma, read-out: AUC0-∞", "result": 1200, "unit": "ng·h/mL"},
      {"measurement": "CL/F", "setting": "[2]; [4]", "result": 415, "unit": "mL/min/kg"},
      {"measurement": "Cmax", "setting": "[2]; 30 mg/kg single oral, mouse plasma, read-out: Cmax", "result": 469, "unit": "ng/mL"},
      {"measurement": "AUC(0-t)", "setting": "[2]; [5]", "result": 8190, "unit": "ng·h/mL"},
      {"measurement": "Tmax", "setting": "[2]; [5]", "result": 2, "unit": "h"},
      {"measurement": "half-life", "setting": "[2]; [5]", "result": 166, "unit": "min"},
      {"measurement": "AUC(0-inf)", "setting": "[2]; 100 mg/kg single oral, mouse plasma, read-out: AUC0-∞", "result": 8210, "unit": "ng·h/mL"},
      {"measurement": "CL/F", "setting": "[2]; [5]", "result": 203, "unit": "mL/min/kg"},
      {"measurement": "Cmax", "setting": "[2]; 100 mg/kg single oral, mouse plasma, read-out: Cmax", "result": 1460, "unit": "ng/mL"},
      {"measurement": "IC50", "setting": "M2 primary macrophages; M2-macrophages, read-out: IC50 M2-macrophage proliferation", "result": 0.0725, "unit": "µM"},
      {"measurement": "IC50", "setting": "M2 primary macrophages; M-CSF : GM-CSF Ratio 0:100, read-out: IC50 M2-Macrophages Growth Inhibition", "result": 3.65, "unit": "µM"},
      {"measurement": "IC50", "setting": "M2 primary macrophages; M-CSF : GM-CSF Ratio 25:75, read-out: IC50 M2-Macrophages Growth Inhibition", "result": 3.52, "unit": "µM"},
      {"measurement": "IC50", "setting": "M2 primary macrophages; M-CSF : GM-CSF Ratio 50:50, read-out: IC50 M2-Macrophages Growth Inhibition", "result": 3.97, "unit": "µM"},
      {"measurement": "IC50", "setting": "M2 primary macrophages; M-CSF : GM-CSF Ratio 75:25, read-out: IC50 M2-Macrophages Growth Inhibition", "result": 3.7, "unit": "µM"},
      {"measurement": "anti-AML activity (tumor growth)", "setting": "[3]", "result": "significant anti-AML activity"}
    ]}
  ]
}
